Data on two molecules can be found in patent US12138240B2, “Treatment of cardiac dysfunction” (priority 2017, dated 2024).

Data set [1] can be described thus: phase 2a studies, highest observed Cmax and extrapolation to 200 mg dose. The note with it: human, in vivo, footnote b, Alzheimer's disease patients, paired with ANAVEX 2-73 value, read-out: ANAVEX 19-144 Concentration, highest observed Cmax in phase 2a studies. As for the experimental part:
Estimates are employed to apply the Exposure-QTcF relationship using observed and unlikely to be observed concentrations of the parent drug and metabolite QTc intervals are predicted, given the parameter estimates obtained with the exposure-QTcF model developed. […] The predicted QTcF for that subject is 410.67 ms, given the corresponding concentration of ANAVEX 19-144 being 38.3 ng/mL (Table 3). Thus, the QT corrected interval upon treatment with ANAVEX 2-73 is predicted to be below 420 ms.
Observed and unlikely to be observed concentrations of the parent drug and metabolite are used to predict heart rate, given the parameter estimates obtained with the exposure-heart rate model developed. […] Thus, the heart rate upon treatment with ANAVEX 2-73 is predicted to be below 75 beats/min.

For data set [2], the system named is human subjects with sustained ventricular fibrillation. Description: treatment of ventricular fibrillation with A19-144 (Example 3). The format is in vivo. To be noted: Example 3: 40 mg orally daily in two 20 mg doses. On the procedure: The safety, tolerability, and short term efficacy of […] A subject with symptomatic ventricular fibrillation (72 hr duration) receives 40 mg of A19-144 orally daily in two 20 mg doses. Dosing is initiated in hospital and continues in weekly follow-up visits. Efficacy is assessed as absence of ventricular fibrillation recurrence on weekly 12-lead ECG and daily transtelephonic monitoring during the study.

In data set [3] the test system is muscarinic acetylcholine receptors. To be noted: stated as 'is believed to bind'; cited from earlier work.
The target of a further data set is sigma-1 receptors (Homo sapiens, UniProt Q99720). To be noted: stated as 'is believed to bind'; cited from earlier work.
Another data set relates to male healthy subjects. Description: linear exposure-QTcF model (NONMEM). Also noted: species or system human. To be noted: QTcFij=407+0.196*Parent−0.643*Metabolite−0.143*Time. The text has this:
Data analysis proceeded from data structure analysis in S-PLUS to linear/nonlinear mixed effects modeling in NONMEM to develop the exposure-QTc relationship for ANAVEX 2-73 and its active metabolite ANAVEX 19-144. The correction method used for QT interval was the Fridericia's correction. The bootstrap was used to determine the reliability/stability of the exposure-QTc models developed. This was necessary to determine if the modeling results obtained with data from the 17 subjects would be applicable to the population at large, given the sample size. […]
The approach used in characterizing exposure-QTc relationship was as follows: • 1) Concentration and QTc versus time plots were examined for any apparent trends or associations. • 2) Subject- and dose-specific QTc vs concentration plots were also examined for association as well as for the presence of any hysteresis indicative of temporal dissociations, i.e., indirect effects. • 3) All of the QTc measurements were plotted against the paired concentration measurements. […] Additionally, models incorporating cooperativity of drug action such as competitive antagonism between ANAVEX 2-73 and ANAVEX 19-144 concentrations and QTc effect were evaluated, as warranted, using nonlinear mixed effects modeling. […]

For data set [4], the system named is human subjects with sustained atrial fibrillation (AF). Briefly: treatment of atrial fibrillation with A2-73 (Examples 1 and 4). In kind it is in vivo. To be noted: for AF recurrence: 30 day follow-up; for serious adverse events: to end of 30 day follow-up. As for the experimental part:
The safety, tolerability, and short term efficacy of […] A subject with symptomatic AF (72 hr duration) receives 30 mg of A2-73 orally every day. Dosing is initiated in hospital and continues in weekly follow-up visits. Efficacy is assessed as absence of AF recurrence on weekly 12-lead ECG and daily transtelephonic monitoring during the study. The safety, tolerability, and short term efficacy of […] A subject with symptomatic AF (72 hr duration) is administered intravenously 30 mg of A2-73 every day. Dosing is initiated in hospital and continues in weekly follow-up visits. Efficacy is assessed as absence of AF recurrence on weekly 12-lead ECG and daily transtelephonic monitoring during the study.

For data set [5], the system named is human subjects with sustained atrial flutter. Briefly: treatment of atrial flutter with A2-73 (Example 2). In kind it is in vivo. To be noted: Example 2: 60 mg orally daily. On the procedure:
The safety, tolerability, and short term efficacy of […] 2-73 in human subjects with sustained atrial flutter as follows. A subject with atrial flutter (72 hr duration) receives 60 mg of A2-73 orally daily. Dosing is initiated in hospital and continues in weekly follow-up visits. Efficacy is assessed as absence of atrial flutter recurrence on weekly 12-lead ECG and daily transtelephonic monitoring during the study.

Setting [6] is: Example 1: 30 mg orally every day.
[7] abbreviates: Example 4: 30 mg intravenously every day.

Read-outs that look alike come from different tables or passages of the source.

Sequence of sigma-1 receptors (Q99720 whole entry): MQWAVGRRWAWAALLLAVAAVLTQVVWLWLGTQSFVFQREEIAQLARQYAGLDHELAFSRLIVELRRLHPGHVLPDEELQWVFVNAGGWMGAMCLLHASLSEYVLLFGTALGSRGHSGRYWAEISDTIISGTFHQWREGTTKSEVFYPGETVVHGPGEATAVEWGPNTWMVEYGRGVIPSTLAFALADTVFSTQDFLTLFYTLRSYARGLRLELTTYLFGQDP

In the case of `CNCC1CCOC1(c1ccccc1)c1ccccc1.Cl` (centres unmarked) [ANAVEX 19-144, 1-(2,2-diphenyltetrahydrofuran-3-yl)-N-methylmethanamine hydrochloride], the Cmax was 11.1 ng/mL in data set [1] (50 mg) and 23.1 ng/mL in data set [1]. In addition, the “time to cessation of ventricular fibrillation” value in data set [2] was at most 12 h. Moreover, in data set [2] (30 day follow-up), the ventricular fibrillation recurrence result was “does not recur”. Besides, the serious adverse events result in data set [2] (to end of 30 day follow-up) is recorded as “no serious adverse events occur”. Moreover, the “affinity for muscarinic acetylcholine receptors” value in data set [3] is “low micromolar range”. The “affinity for sigma-1 receptors” value on sigma-1 receptors is given as “low micromolar range”.

`CN(C)CC1CCOC1(c1ccccc1)c1ccccc1.Cl` (centres unmarked) [ANAVEX 2-73, 1-(2,2-diphenyltetrahydrofuran-3-yl)-N,N-dimethylmethanamine hydrochloride]: the “slope on Parent in final exposure-QTcF model” value in the data set on male healthy subjects amounted to 0.196. For the same molecule, in data set [4] (setting [6]), the “time to cessation of AF” value is at most 12 h, the AF recurrence result was “does not recur” and the serious adverse events result was “no serious adverse events occur”. In addition, in data set [4] (setting [7]), the “time to cessation of AF” value is at most 12 h, the AF recurrence result was “does not recur” and the serious adverse events result was “no serious adverse events occur”. The “time to cessation of arrhythmia” value in data set [5] is at most 12 h. Also, in data set [5] (30 day follow-up), the recurrence result is listed as “does not recur”. In addition, the serious adverse events entry in data set [5] (to end of 30 day follow-up) was “no serious adverse events occur”.
